For one data set, the system named is Hela cells. Nature of the data set: Cytotoxicity assay (MTS reduction). The class given is cell-based. As to conditions: concentrations up to 100 μM, 18 h, MTS reagent; data not shown. As to the method:
Selected compounds were also tested for their ability to inhibit growth of mammalian cells so as to ascertain levels of cytotoxicity to the mammalian host, via an assay measuring the biological reduction of the inner salt of (3-(4,5-dimethylthiazol-2-yl)-5-(3-carboxymethoxyphenyl)-2-(4-sulfophenyl)-2H-tetrazolium (MTS reagent). Assays were performed in 96-well microtiter plates. Briefly, compounds at 100, 50, 25, and 12.5 μM concentrations were incubated with 2×10^4 Hela cells per well in Dulbecco's Modified Eagle Medium (Invitrogen Corporation) containing 1% Bovine Growth Serum (HyClone) for 18 h at 37° C. under 5% CO2.

A short description of data set [1]: Bone powder binding, LC/MS detection. As to conditions: 100 μM compound, Tris-HCl pH 7, 0.15M NaCl, ground rat tibia bone, 10 min. How it is done: The ability of the example molecules to bind to bone powder was established in two parallel fashions, using either LC/MS or fluorometric detection. For LC/MS detection, a stock solution (5 mM) of the compound to be tested was added to 0.1M Tris-HCl buffer pH 7, 0.15M NaCl to reach a final concentration of 100 μM. Triplicate samples (1 mL) of the compound solutions were intensively shaken for 10 min with or without 25 mg of fresh or 20 mg of vacuum dried ground rat tibia bone. The samples were then centrifuged for 15 min at 10 000 g. The presence of unbound compound was measured by injection of 30 μL of each of the supernatants into an Agilent 1100™ LC/UV system. For fluorometric detection, an individual compound was dissolved in PBS or water (compound 52) and resuspended at a concentration of 1 mg/ml in a slurry of bone meal powder (Now Foods, Bloomingdale, Ill., USA) in PBS at 10 mg/ml. The suspension of drug/prodrug in bone meal powder was incubated at 37° C. for 1 h to allow for binding, and centrifuged at 13 000 rpm for 2 min, before recovering the supernatant. The bone meal powder pellet was then washed three times with 1 ml of PBS. All supernatants were saved and assessed for fluoroquinolone content by fluorescence measurements at excitation/emission wavelengths of 280/465 nm. The amount of fluoroquinolone was determined from standard curves generated for each experiment. Amount of drug/prodrug bound to bone powder was deduced from the difference between the input amount (typically 1 mg) and the amount recovered in the supernatants after binding. In all binding experiments, >99% of input drug was recovered in the supernatant for the parent drugs.

The test system of data set [2] is S. aureus strains ATCC13709 and RN4220. The data set can be described thus: microbe, parasite or virus in culture. It is filed as cell-based. As to conditions: Staphylococcus aureus, read-out: minimum inhibitory concentration (MIC). How it is done:
(§1) Susceptibility of S. aureus strains ATCC13709 and RN4220 to the commercial antibiotics and synthesized compounds was determined by following the guidelines set by the Clinical and Laboratory Standards Institute (formerly the National Committee for Clinical Laboratory Standards) (M26-A). Compounds were diluted two-fold serially in DMSO and transferred to cation-adjusted Mueller Hinton broth (CAMHB; Becton Dickinson). 50 μL of compounds diluted in CAMHB was mixed with 100 μL of bacteria diluted in CAMHB in 96-well microtiter plates. The final number of micro-organisms in the assay was 5×10^5 c.f.u. per mL and the final concentration of DMSO in the assay was 1.25%. Assays were set up in duplicate and incubated at 37° C. for 18 h. The concentration of compound that inhibited visible growth was reported as the minimum inhibitory concentration (MIC).

Data set [3] shares this test system. Nature of the data set: Susceptibility testing (MIC) in the presence of serum. It is filed as cell-based. As to conditions: Staphylococcus aureus. How it is done: as §1
Susceptibility testing experiments were also carried out in the presence of serum. These experiments were carried out similar to the susceptibility testing with the following modifications. 75 μL of compounds diluted in CAMHB was mixed with 75 μL of bacteria diluted in 100% serum from any given source (commercial pooled mouse serum (MS) and human serum (HS), Equitech-Bio Inc.) or diluted in 8% purified human serum albumin (HSA) (Calbiochem). […]

Data set [4] in a line: Bone powder binding, fluorometric detection. As to conditions: for Binding to bone (%) Fluorescence: 1 mg/ml compound, bone meal powder 10 mg/ml in PBS, 37° C., 1 h. The procedure, abridged: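 LC/MS method: 100 μM compound in 0.1 M Tris-HCl pH 7, 0.15 M NaCl shaken 10 min with or without ground rat tibia, centrifuged, unbound compound measured in supernatant. Fluorometric method: 1 mg/ml compound in 10 mg/ml bone meal/PBS, 1 h at 37 °C, pellet washed. Supernatant fluoroquinolone read at 280/465 nm; bound amount taken as input minus recovered.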

A short description of data set [5]: Regeneration of drug from bone powder-bound prodrug. The class given is in vitro ADME. How it is done: Amounts of drug “regenerated” from the phosphonated parent prodrug were measured as follows. Washed bone powder-bound prodrugs from the above section were resuspended in 400 μL PBS or in 400 μL 50% (v/v in PBS) human or rat serum. […] Methanol (5× volume relative to supernatant) was added to each supernatant and the mixture was vortexed on a floor model vortex for 15 min to extract freed fluoroquinolone. The mixture was then centrifuged at 10 000 rpm for 15 min to pellet the insoluble material. The supernatant containing the extracted fluoroquinolone was recovered and evaporated to dryness in a speed vac. The dried pellets were resuspended in PBS and the amount of fluoroquinolone was determined by fluorescence measurements as described above. The percentage of drug regenerated was deduced from the difference between amount of bound prodrug and the amount of regenerated drug. The identity of regenerated drug was deduced by MIC determination; MICs of regenerated material matched those of parent drugs but not those of prodrugs.

The subject of the next data set is S. aureus ATCC 13709. Nature of the data set: Prophylactic model of bone infection in rats. The class given is in vivo, rat. The procedure, abridged:
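Female CD rats (n=5/group) given intra-tibial 5% sodium morrhuate then S. aureus (ca. 5×10^5 CFU/rat), hole sealed with dental cement. Prodrugs given as single IV bolus in 0.9% saline at various times before infection; parent at molar equivalent dose. Tibiae harvested 24 h postinfection; Log CFU/g bone, detection limit 2 Log CFU/g.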

The mark [6] stands for this setting: ATCC13709, CAMHB, 37° C., 18 h, data not shown.

Structures are written as SMILES. In brackets after ≈: the same amount, converted by molar mass.

With `COc1c(N2CCNC(C)C2)c(F)cc2c(=O)c(C(=O)OCCCC(P(=O)(O)O)P(=O)(O)O)cn(C3CC3)c12` (stereo not drawn) [Compound 18, 4,4-bisphosphonobutyl 7-(3-methylpiperazin-1-yl)-1-cyclopropyl-6-fluoro-1,4-dihydro-8-methoxy-4-oxoquinoline-3-carboxylate], in the data set on Hela cells, the cytotoxicity result is “no signs of any cytotoxicity”. The “Binding to bone (%) LC/MS” value in data set [1] stood at 96.0 ± 2.4%.

As for `COc1c(N2C[C@@H]3CCCN[C@@H]3C2)c(F)cc2c(=O)c(C(=O)OCCCCC(P(=O)(O)O)P(=O)(O)O)cn(C3CC3)c12` [Compound 25, 5,5-bisphosphonopentyl 7-((4aS,7aS)-octahydropyrrolo[3,4-b]pyridin-6-yl)-1-cyclopropyl-6-fluoro-1,4-dihydro-8-methoxy-4-oxoquinoline-3-carboxylate], the MIC in data set [2] (setting [6]) was determined as 32 µg/mL (≈ 50.7 µM); in data set [3] (ATCC13709, in serum (kind not stated), read-out: MIC in serum), 32 µg/mL. Besides, the “Binding to bone (%) Fluorescence” value in data set [4] is recorded as 92.7%. In data set [1], the “Binding to bone (%) LC/MS” value worked out at 87.6 ± 11.5%. The “drug released from the bone matter after 7 days of incubation, in words” value in data set [5] (7 days, medium not stated) was “signs of drug release”.

As for `CCOP(=O)(OCC)C(CCCCOC(=O)c1cn(C2CC2)c2c(OC)c(N3C[C@@H]4CCCN[C@@H]4C3)c(F)cc2c1=O)P(=O)(OCC)OCC.O=C(O)C(F)(F)F` [Compound 26, 5,5-bis(diethylphosphono)pentyl 7-((4aS,7aS)-octahydropyrrolo[3,4-b]pyridin-6-yl)-1-cyclopropyl-6-fluoro-1,4-dihydro-8-methoxy-4-oxoquinoline-3-carboxylate, trifluoroacetate salt], the MIC in data set [2] (ATCC13709, 18 h) turned out to be 32 µg/mL; in data set [3] (ATCC13709, read-out: MIC in the presence of 50% mouse serum in the medium), 0.5 µg/mL. Further, the cytotoxicity result in the data set with Hela cells is recorded as “no signs of any cytotoxicity”.

`COc1c(N2CCNC(C)C2)c(F)cc2c(=O)c(C(=O)OCCCCC(P(=O)(O)O)P(=O)(O)O)cn(C3CC3)c12` (stereo not drawn) [Compound 28, 5,5-bisphosphonopentyl 7-(3-methylpiperazin-1-yl)-1-cyclopropyl-6-fluoro-1,4-dihydro-8-methoxy-4-oxoquinoline-3-carboxylate]: the cytotoxicity entry in the data set on Hela cells is “no signs of any cytotoxicity”. Further, the “Binding to bone (%) LC/MS” value in data set [1] turned out to be 91.9 ± 5.5%.

In the case of `COc1c(N2CCN(C(=O)CC(C)(C)c3cc(P(=O)(O)CP(=O)(O)O)ccc3OC(C)=O)C(C)C2)c(F)cc2c(=O)c(C(=O)O)cn(C3CC3)c12` (stereo not drawn) [Compound 141], the MIC in data set [2] (setting [6]) was found to be 4 µg/mL (≈ 5.32 µM). For the same compound, in data set [4], the “Binding to bone (%) Fluorescence” value is on record as 36.6%. The “binding to osseous matter, in words” value in data set [4] (bisphosphonates bearing three hydroxy groups) is recorded as “less effectively bound”. Further, in data set [5] (PBS vs serum), the “effect of the medium (presence or absence of serum) on regeneration rate” value is listed as “fairly similar rates”. In the data set on S. aureus ATCC 13709 (45.4 mg/kg IV, 2 days prior to infection), the “Measured bacterial titer (Log CFU/g of bone) Test compound” value is listed as 2.40 ± 0.44 Log CFU/g of bone. Besides, in the data set on S. aureus ATCC 13709 (Table 4 and FIGS. 6-8, doses as in Table 4), the “prophylactic effect in rat model of bone infection, in words” value is “efficient prophylactic effect”.

Values taken from patent US20080287396A1, “Phosphonated Fluoroquinolones, Antibacterial Analogs Thereof, and Methods for the Prevention and Treatment of Bone and Joint Infections” (TARGANTA THERAPEUTICA INC., priority 2005, published 2008).
